Data taken from patent publication US20090156657A1, “ANTI-INFLAMMATORY COMPOSITION” (Ajinomoto Co., Inc., priority 2006, published 2009).

Legend:
[1] = tested on: MCP-1; test: MCP-1 secretion into medium of HAEC (immunoassay); assay type: cell-based, human; settings: 0.1-10 μM 24 h, 25 mM glucose 4 h, FIG. 4B
Method: (§1) HAEC cells proliferated to confluence in a 96 well microplate were pre-incubated with 0.1-10 μM serotonin derivative for 24 hours, and stimulated with 25 mM glucose for 4 hours. The cell layer was washed with Hanks solution, and then anti-VCAM-1 monoclonal antibody (Becton Dickinson) was added and the cells were incubated at 37° C. for 1 hour. After washing, the cells were incubated with secondary antibody (peroxidase-labeled anti-mouse IgG goat F(ab′)2 fragment; Cappel) for 1 hour. A color development substrate (o-phenylenediamine dihydrochloride) was added and, about 30 minutes later (room temperature), the absorbance (492 nm) of each well was quantified with a microplate reader. The MCP-1 concentration of the medium was quantified with Human MCP-1 Immunoassay Kit (BioSource International).

[2] = tested on: IL-1β mRNA; test: IBD model mouse: IL-1β mRNA in large intestine tissue (realtime PCR); assay type: in vivo; settings: IBD model mice, vs Control group, GAPDH internal standard; FIG. 15
From the text: (§2) At the end of the test described in Example 10, the large intestine (caecum—anus) was cut into about 1 cm pieces from the center to the anus side to give 3 sections in total. One of them was fixed with 10% formalin solution and two were frozen in liquid nitrogen. The large intestine fixed with formalin was embedded in paraffin, and sliced to give transversely sectioned specimens. The specimens were stained by a PAS (Periodic acid Schiff) staining method, and histopathological images were observed. On the other hand, total RNA was extracted from the frozen large intestine tissue with ISOGEN (NIPPON GENE CO., LTD.) Total RNA (2 μg) was subjected to a reverse transcription reaction using a SYBR ExScript™ RT-PCR kit (TaKaRa) and, using this as a template, quantitative realtime PCR was performed using IL-1β, TNF-α and GAPDH. The primers used for the analysis were as follows.
(§3) Template DNA (2 μl), SYBR Premix Ex Taq™ (TaKaRa, 10 μl), ROX Reference Dye (0.4 μl), 100 μM forward primer (0.04 μl), 100 μM reverse primer (0.04 μl) and sterile water (7.52 μl) were mixed on ice and, using Applied Biosystems 7900HT Fast realtime PCR system, the mixture was heated at 95° C. for 10 seconds, followed by 40 cycles of 95° C., 5 seconds and 60° C., 34 seconds, whereby the DNA was amplified. Using GAPDH as the internal standard, IL-1β and TNF-α expression levels were evaluated.

[3] = tested on: MCP-1 mRNA; test: MCP-1 mRNA expression in HAEC by real-time PCR; assay type: cell-based, human; settings: 10 μM 24 h, 25 mM glucose 3 h, GAPDH internal standard, FIG. 3B
Method: HAEC cells pre-treated with 10 μM of CS or FS for 24 hours were stimulated with 25 mM glucose for 3 hours, and total RNA was extracted with Isogenkit (NIPPON GENE CO., LTD.). From 1 μg of RNA, cDNA was synthesized using 100 U/mL of reverse transcriptase (TAKARA BIO INC.) and 0.1 μM of oligo (dT)-adapter (TAKARA BIO INC.) (total volume of reaction mixture; 50 μL) (42° C., 40 minutes). Real-time PCR was performed using 7300 Real Time PCR system (Applied Biosystems Japan Ltd.) and the PCR product was detected by SYBER Green I.
PCR reaction composition (RT-PCRkit, TAKARA BIO INC.): 12.5 μL Premix Ex Taq, 2.5 μL SYBER Green I, synthesis primer, ROX reference dye, cDNA (corresponding to 20 ng of total RNA), final reaction volume; 25 μL
Primers having the following sequences were used.
PCR was conducted under the following conditions.
thermal denaturation: at 95° C. for 15 seconds, extension reaction: 40 cycles (3 seconds at 95° C., 31 seconds at 60° C.)
Expression amounts of VCAM-1 and MCP-1 mRNA were calculated using GAPDH as the internal standard.

[4] = IBD model mouse: body weight, ingested feed, water drunk; assay type: in vivo; settings: IBD model mice
From the text: 4 days before IL-10 deficient cell transplantation, total 40 SCID mice (7-week-old, were divided into the following 4 groups 1) to 4) (10 mice in each group) and acclimation to a control diet was simultaneously started. Immediately after cell transfer, the feed was changed to the test diet shown in Table 4, and free ingestion was allowed for 3 weeks. The safflower seed extract powder was the same as that in Example 8, and contained 50 wt % of γ-cyclodextrin. N-Feruloylserotonin (FS) was synthesized according to the method of Experimental Example 1. During the test diet ingestion period, the body weight, the amount of ingested feed and the amount of water drunk were measured 3 times a week to monitor the onset of the disease.
1) Normal group (normal SCID mice×control diet) 2) Control group (IL-10 deficient cell-transplanted SCID mice×control diet) 3) SSE group (IL-10 deficient cell-transplanted SCID mice×SSE diet*) 4) FS group (IL-10 deficient cell-transplanted SCID mice×FS diet**) *containing FS and p-coumaroyl serotonin (CS) at 0.10 and 0.13 wt %, respectively (based on aglycone) (total serotonin derivative content=[…]) **containing 0.4 wt % of FS aglycone

[5] = tested on: U-937 cells / HAEC; test: Migration capability of monocyte (U-937), Transwell system with HAEC; assay type: cell-based, human; settings: HAEC pre-incubated 5 or 10 μM 24 h, 25 mM glucose 4 h; FIG. 7
Method: The migration capability of monocyte was measured using the Transwell system (pore size 3 μm; BD Biosciences). HAEC cultured on a transwell placed in a 24 well microplate was pre-incubated with 5 or 10 μM serotonin derivative for 24 hours, and stimulated with 25 mM glucose for 4 hours. 200 μL of U-937 cell suspension (10^6 cells/mL) was added to the transwell and the cells were incubated as-is at 37° C. for 2 hours. The number of cells migrated to the lower chamber of the transwell through the membrane was counted under a microscope (20 fields). The experiment was repeated three times, and the results are shown as an average value thereof. An experiment using fluorescence-labeled U-937 cells was also performed. BCECF-AM-labeled U-937 cells were plated in the upper chamber of the transwell and incubated at 37° C. for 2 hours. The cells migrated to the lower chamber through the membrane were collected in 1 mL of PBS buffer and treated with 1% Triton X for 2 hours. The fluorescence derived from the migrated cells was quantified (Ex. 503 nm, Em. 525 nm) using a fluorescence plate reader (Bio-Rad, Fluoromark).

[6] = tested on: VCAM-1; test: VCAM-1 protein expression on HAEC cell membrane (immunostaining); assay type: cell-based, human; settings: 0.1-10 μM 24 h, 25 mM glucose 4 h, FIG. 4A
Method: as §1

[7] = tested on: TNF-α mRNA; test: IBD model mouse: TNF-α mRNA in large intestine tissue (realtime PCR); assay type: in vivo; settings: IBD model mice, vs Control group, GAPDH internal standard; FIG. 15
From the text: as §2, §3

[8] = tested on: large intestine tissue of IBD model mice; test: IBD model mouse: large intestine histopathology (PAS staining); assay type: in vivo; settings: vs Control group, FIG. 14
From the text: as §2

COc1cc(/C=C/C(=O)NCCc2c[nH]c3ccc(O)cc23)ccc1O [FS, N-feruloyl serotonin]
MCP-1 secretion into the medium [1]: suppressed the induction of their expressions in a dose-dependent manner | mRNA expression level of IL-1β in large intestine tissue [2]: significant decrease | expression amount of MCP-1 mRNA [3]: significantly suppressed the increase | body weight change rate (day 0 = 100) ([4]; day 21 vs day 0, mean ± SEM): 112.5 ± 1.2 | body weight, completion of test diet ingestion (day 21) ([4]; mean ± SEM): 20.6 ± 0.4 g | body weight, start of test diet ingestion (day 0) ([4]; mean ± SEM, baseline): 18.3 ± 0.3 g | number of U-937 cells migrated into subendothelium space (cell count) [5]: significantly decreased | VCAM-1 expression on the cell membrane [6]: suppressed the induction of their expressions in a dose-dependent manner | mRNA expression level of TNF-α in large intestine tissue [7]: tendency toward decrease | number of normal goblet cells [8]: increased number of normal goblet cells | thickening of the large intestine mucosal epithelium [8]: suppressed thickening
